The values below are quoted from earlier work in patent publication US8173570B2, “Hydroconversion processes employing multi-metallic catalysts and method for making thereof” (Chevron U.S.A. Inc., priority 2007, dated 2012).

The structures appear in SMILES notation.

This series has as its system rats. Conditions: acute toxicity, as single oral dose to rats (definition b56-b57).

Take `O=CC(=O)O` [glyoxylic]: the 50% lethal dose (LD50) was 3000 mg/kg.

The term LD50 denotes the dose expected to kill half of the subjects tested.
